Each block holds one compound with its values, some of them ahead of it.
Assays:
H146 = experiment: In vitro anti-proliferation assay (ATPlite) in BCL-XL-dependent small cell lung cancer cell line H146; assay type: cell-based; conditions: for IC50: Homo sapiens, NCI-H146, about 72 hours, 5% FBS
Method: (§1) Cell antiproliferation is assayed by PerkinElmer ATPlite™ Luminescence Assay System. Briefly, the various test cancer cell lines are plated at a density of about 1×10^4 cells per well in Costar 96-well plates, and are incubated with different concentrations of compounds for about 72 hours in medium supplemented with 5% FBS. One lyophilized substrate solution vial is then reconstituted by adding 5 mL of substrate buffer solution, and is agitated gently until the solution is homogeneous. About 50 μL of mammalian cell lysis solution is added to 100 μL of cell suspension per well of a microplate, and the plate is shaken for about five minutes in an orbital shaker at ˜700 rpm. This procedure is used to lyse the cells and to stabilize the ATP. Next, 50 μL substrate solution is added to the wells and microplate is shaken for five minutes in an orbital shaker at ˜700 rpm. Finally, the luminescence is measured by a PerkinElmer TopCount® Microplate Scintillation Counter. Such assays, carried out with a range of doses of test compounds, allow the determination of the cellular anti-antiproliferative IC50 of the compounds of the present invention.

Bcl-w = Bcl-w (Homo sapiens (Human), UniProt Q92843); conditions: cited from earlier work
SCLC H146 cell line = conditions: read-out: IC50 against SCLC H146 cell line; cited from earlier work
H345 xenograft = conditions: 100 mg/kg/day, H345 xenograft model; cited from earlier work
[1] = system: xenograft models of small-cell lung cancer and acute lymphoblastic leukemia; conditions: single agent; cited from earlier work
circulating platelets = conditions: clinical trial, patients; cited from earlier work
[2] = cited from earlier work
[3] = cited from earlier work; remark: listed apart in the source
Bcl-2 = Bcl-2 (Homo sapiens (Human), UniProt P10415); experiment: Bcl-2 competition binding (fluorescence polarization) assay; conditions: BH3 peptide, 3 hours incubation at room temperature
Method: Biological Example 1: Bcl-2 Competition Binding (Fluorescence Polarization) Assay
This binding assay was performed in 96-well plate and with each assay contained 15 and 30 nM of labeled peptide and purified Bcl-2 protein (purchased from R&D Systems, Inc). The assay buffer contained 20 mM Hepes (pH 7.0), 50 mM KCl, 5 mM MgCl2, 20 mM Na2MoO4, 0.1 mg/ml Bovine Gamma Globulin and 0.01% NP40. Compounds were diluted in DMSO and added to the final assay with concentration range from 20 uM to 2 nM. The polarization degree (mP) value was determined by BioTek Synergy II with background subtraction after 3 hours of incubation at room temperature. IC50 was calculated using Prism software with sigmoidal dose-response curve fitting. ABT-737 was used as reference compound. Such assays, carried out with a range of doses of test compounds, allow the determination of an approximate IC50 value.

RS4;11 = experiment: In vitro anti-proliferation assay (ATPlite) in BCL-2-dependent acute lymphoblastic leukemia cell line RS4;11; assay type: cell-based; conditions: Homo sapiens, about 72 hours, 5% FBS
Method: Biological Example 2: In Vitro Anti-Proliferation Assay in BCL-2-Dependent Acute Lymphoblastic Leukemia Cell Line RS4;11
as §1, with “invention. The following table lists the IC50 values of certain compounds of the invention.” for “invention.”

Sequence of Bcl-2 (P10415 whole entry): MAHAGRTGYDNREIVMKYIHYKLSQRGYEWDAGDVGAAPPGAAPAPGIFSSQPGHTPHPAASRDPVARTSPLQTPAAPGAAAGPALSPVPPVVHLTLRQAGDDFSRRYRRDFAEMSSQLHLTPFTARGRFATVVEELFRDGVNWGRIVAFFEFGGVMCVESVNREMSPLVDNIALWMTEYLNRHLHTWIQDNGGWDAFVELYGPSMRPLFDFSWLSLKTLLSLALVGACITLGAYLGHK
Sequence of Bcl-w (Q92843 whole entry): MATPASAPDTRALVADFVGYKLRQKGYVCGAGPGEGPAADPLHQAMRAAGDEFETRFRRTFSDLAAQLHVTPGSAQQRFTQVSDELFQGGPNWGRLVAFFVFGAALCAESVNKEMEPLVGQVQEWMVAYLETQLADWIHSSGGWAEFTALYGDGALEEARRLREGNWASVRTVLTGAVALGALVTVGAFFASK

Compound: CC1(C)CCC(c2ccc(Cl)cc2)=C(CN2CCN(c3ccc(C(=O)NS(=O)(=O)c4ccc(N[C@H](CCN5CCOCC5)CSc5ccccc5)c(S(=O)(=O)C(F)(F)F)c4)cc3)CC2)C1 [ABT-263]
IC50 (H146): 60 nM
Ki (Bcl-w): ≤ 1 nM
IC50 (SCLC H146 cell line): 110 nM
TGI (H345 xenograft): 80%
treated tumors indicating at least a 50% reduction in tumor volume (H345 xenograft): 20%
tumor response, oral administration alone [1]: complete tumor regressions
effect on number of circulating platelets (circulating platelets): rapid, concentration-dependent decrease

Compound: CN(C)CC[C@H](CSc1ccccc1)Nc1ccc(S(=O)(=O)NC(=O)c2ccc(N3CCN(Cc4ccccc4-c4ccc(Cl)cc4)CC3)cc2)cc1[N+](=O)[O-] [ABT-737]
oral bioavailability [2]: not orally bioavailable
aqueous solubility [3]: low

Compound: CC1(C)CCC(CN2CCN(c3ccc(C(=O)NS(=O)(=O)c4ccc(N5CCOCC5)c([N+](=O)[O-])c4)c(-n4ncc5nc6[nH]ccc6cc54)c3)CC2)=C(c2ccc(Cl)cc2)C1 [Example 8, 4-(4-((4′-chloro-5,5-dimethyl-3,4,5,6-tetrahydro-[1,1′-biphenyl]-2-yl)methyl)piperazin-1-yl)-N-((4-morpholino-3-nitrophenyl)sulfonyl)-2-(pyrazolo[4,3-b]pyrrolo[3,2-e]pyridin-1(5H)-yl)benzamide]
IC50 (Bcl-2): < 10 nM

Compound: CC1(C)CCC(CN2CCN(c3ccc(C(=O)NS(=O)(=O)c4ccc(SCC5CCOCC5)c([N+](=O)[O-])c4)c(-n4ncc5nc6[nH]ccc6cc54)c3)CC2)=C(c2ccc(Cl)cc2)C1 [Example 11, 4-(4-((4′-chloro-5,5-dimethyl-3,4,5,6-tetrahydro-[1,1′-biphenyl]-2-yl)methyl)piperazin-1-yl)-N-((3-nitro-4-(((tetrahydro-2H-pyran-4-yl)methyl)thio)phenyl)sulfonyl)-2-(pyrazolo[4,3-b]pyrrolo[3,2-e]pyridin-1(5H)-yl)benzamide]
IC50 (Bcl-2): < 10 nM

Compound: CC1(C)CCC(CN2CCN(c3ccc(C(=O)NS(=O)(=O)c4ccc(NC[C@@H]5CN(C6COC6)CCO5)c([N+](=O)[O-])c4)c(-n4ncc5nc6[nH]ccc6cc54)c3)CC2)=C(c2ccc(Cl)cc2)C1 [Example 15, (R)-4-(4-((4′-chloro-5,5-dimethyl-3,4,5,6-tetrahydro-[1,1′-biphenyl]-2-yl)methyl)piperazin-1-yl)-N-((3-nitro-4-(((4-(oxetan-3-yl)morpholin-2-yl)methyl)amino)phenyl)sulfonyl)-2-(pyrazolo[4,3-b]pyrrolo[3,2-e]pyridin-1(5H)-yl)benzamide]
IC50 (Bcl-2): < 10 nM

Compound: CC1(C)CCC(CN2CCN(c3ccc(C(=O)NS(=O)(=O)c4ccc(OCC5(F)CCN(C6COC6)CC5)c([N+](=O)[O-])c4)c(-n4ncc5nc6[nH]ccc6cc54)c3)CC2)=C(c2ccc(Cl)cc2)C1 [Example 17, 4-(4-((4′-chloro-5,5-dimethyl-3,4,5,6-tetrahydro-[1,1′-biphenyl]-2-yl)methyl)piperazin-1-yl)-N-((4-((4-fluoro-1-(oxetan-3-yl)piperidin-4-yl)methoxy)-3-nitrophenyl)sulfonyl)-2-(pyrazolo[4,3-b]pyrrolo[3,2-e]pyridin-1(5H)-yl)benzamide]
IC50 (Bcl-2): < 10 nM

Compound: CC1(C)CCC(CN2CCN(c3ccc(C(=O)NS(=O)(=O)c4ccc(OCC5CCOCC5)c([N+](=O)[O-])c4)c(-n4ncc5nc6[nH]ccc6cc54)c3)CC2)=C(c2ccc(Cl)cc2)C1 [Example 18, 4-(4-((4′-chloro-5,5-dimethyl-3,4,5,6-tetrahydro-[1,1′-biphenyl]-2-yl)methyl)piperazin-1-yl)-N-((3-nitro-4-((tetrahydro-2H-pyran-4-yl)methoxy)phenyl)sulfonyl)-2-(pyrazolo[4,3-b]pyrrolo[3,2-e]pyridin-1(5H)-yl)benzamide]
IC50 (Bcl-2): < 10 nM

Next, values leading:

IC50 (Bcl-2): < 10 nM
IC50 (RS4;11): < 15 nM
BCL-2 selectivity concluded from H146 IC50 (H146; BCL-XL dependent cell line H146): BCL-2 selective inhibitor
IC50 (H146): > 2000 nM
Compound: CC1(C)CCC(CN2CCN(c3ccc(C(=O)NS(=O)(=O)c4ccc(NCC5CCOCC5)c([N+](=O)[O-])c4)c(-n4ncc5nc6[nH]ccc6cc54)c3)CC2)=C(c2ccc(Cl)cc2)C1 [Example 4, 4-(4-((4′-chloro-5,5-dimethyl-3,4,5,6-tetrahydro-[1,1′-biphenyl]-2-yl)methyl)piperazin-1-yl)-N-((3-nitro-4-(((tetrahydro-2H-pyran-4-yl)methyl)amino)phenyl)sulfonyl)-2-(pyrazolo[4,3-b]pyrrolo[3,2-e]pyridin-1(5H)-yl)benzamide]

IC50 (Bcl-2): < 10 nM
IC50 (RS4;11): < 15 nM
IC50 (H146): > 2000 nM
Compound: CC1(C)CCC(CN2CCN(c3ccc(C(=O)NS(=O)(=O)c4ccc(NCC5(F)CCOCC5)c([N+](=O)[O-])c4)c(-n4ncc5nc6[nH]ccc6cc54)c3)CC2)=C(c2ccc(Cl)cc2)C1 [Example 12, 4-(4-((4′-chloro-5,5-dimethyl-3,4,5,6-tetrahydro-[1,1′-biphenyl]-2-yl)methyl)piperazin-1-yl)-N-((4-(((4-fluorotetrahydro-2H-pyran-4-yl)methyl)amino)-3-nitrophenyl)sulfonyl)-2-(pyrazolo[4,3-b]pyrrolo[3,2-e]pyridin-1(5H)-yl)benzamide]

IC50 (Bcl-2): < 10 nM
Compound: CN1CCC(CNc2ccc(S(=O)(=O)NC(=O)c3ccc(N4CCN(CC5=C(c6ccc(Cl)cc6)CC(C)(C)CC5)CC4)cc3-n3ncc4nc5[nH]ccc5cc43)cc2[N+](=O)[O-])CC1 [Example 13, 4-(4-((4′-chloro-5,5-dimethyl-3,4,5,6-tetrahydro-[1,1′-biphenyl]-2-yl)methyl)piperazin-1-yl)-N-((4-(((1-methylpiperidin-4-yl)methyl)amino)-3-nitrophenyl)sulfonyl)-2-(pyrazolo[4,3-b]pyrrolo[3,2-e]pyridin-1(5H)-yl)benzamide]

IC50 (Bcl-2): < 10 nM
Compound: CC1(C)CCC(CN2CCN(c3ccc(C(=O)NS(=O)(=O)c4ccc(NCC5(F)CCN(C6COC6)CC5)c([N+](=O)[O-])c4)c(-n4ncc5nc6[nH]ccc6cc54)c3)CC2)=C(c2ccc(Cl)cc2)C1 [Example 14, 4-(4-((4′-chloro-5,5-dimethyl-3,4,5,6-tetrahydro-[1,1′-biphenyl]-2-yl)methyl)piperazin-1-yl)-N-((4-(((4-fluoro-1-(oxetan-3-yl)piperidin-4-yl)methyl)amino)-3-nitrophenyl)sulfonyl)-2-(pyrazolo[4,3-b]pyrrolo[3,2-e]pyridin-1(5H)-yl)benzamide]

IC50 (Bcl-2): < 10 nM
Compound: CN1CCC(F)(CNc2ccc(S(=O)(=O)NC(=O)c3ccc(N4CCN(CC5=C(c6ccc(Cl)cc6)CC(C)(C)CC5)CC4)cc3-n3ncc4nc5[nH]ccc5cc43)cc2[N+](=O)[O-])CC1 [Example 16, 4-(4-((4′-chloro-5,5-dimethyl-3,4,5,6-tetrahydro-[1,1′-biphenyl]-2-yl)methyl)piperazin-1-yl)-N-((4-(((4-fluoro-1-methylpiperidin-4-yl)methyl)amino)-3-nitrophenyl)sulfonyl)-2-(pyrazolo[4,3-b]pyrrolo[3,2-e]pyridin-1(5H)-yl)benzamide]

— US10377755B2, “BCL-2 inhibitors” (Newave Pharmaceutical Inc., priority 2016, dated 2019)
